From patent publication US20240148723A1, “MYCOBACTERIUM TUBERCULOSIS COMPOSITIONS AND METHODS” (priority 2021, published 2024)
Converted amounts (≈) assume the structure as drawn.

System: M. tuberculosis
Assay type: cell-based, Mycobacterium tuberculosis
Details: pH 6.8

Row | Compound | MIC in the media 7H9 | MIC in the media L-Ala | MIC in the media SBA | MIC in the media SLac
1 | NC(=O)c1cnccn1 [compound 14911] | ≥ 800 µg/mL | 200 µg/mL (≈ 1620 µM) | 100 µg/mL (≈ 812 µM) | 200 µg/mL (≈ 1620 µM)
2 | CCCOC(=O)c1ccc(N)cc1 [compound 23516] | ≥ 800 µg/mL | 0.12 µg/mL (≈ 0.67 µM) | 0.25 µg/mL (≈ 1.39 µM) | 0.25 µg/mL (≈ 1.39 µM)
3 | CN(C)CCCN1c2ccc3ccccc3c2Sc2cccc(Cl)c21 [compound 24113] | ≥ 9.22 µg/mL | 2.31 µg/mL (≈ 6.26 µM) | 2.31 µg/mL (≈ 6.26 µM) | 1.18 µg/mL (≈ 3.2 µM)
4 | CCOc1ccc(Nc2c3ccccc3nc3ccccc23)cc1 [compound 30205] | ≥ 1.97 µg/mL | 1.97 µg/mL (≈ 6.27 µM) | 3.93 µg/mL (≈ 12.5 µM) | 1.97 µg/mL (≈ 6.27 µM)
5 | COC(=O)c1ccc(N)cc1O [compound 30263] | ≥ 4.18 µg/mL | 1.05 µg/mL (≈ 6.28 µM) | 4.18 µg/mL (≈ 25 µM) | 1.05 µg/mL (≈ 6.28 µM)
6 | CCCCCc1cc(O)cc2c1Oc1cc(O)cc(C(=O)CCCC)c1C(=O)O2 [compound 31867] | ≥ 39.84 µg/mL | 4.98 µg/mL (≈ 12.5 µM) | 2.49 µg/mL (≈ 6.25 µM) | 0.64 µg/mL (≈ 1.61 µM)
7 | CCOC(=O)c1cccc([N+](=O)[O-])c1 [compound 32740] | ≥ 78.08 µg/mL | 2.44 µg/mL (≈ 12.5 µM) | 4.88 µg/mL (≈ 25 µM) | 2.44 µg/mL (≈ 12.5 µM)
8 | O=C1CC(c2ccc(O)cc2)Oc2cc(O)cc(O)c21 (centres unmarked) [compound 34875] | ≥ 27.23 µg/mL | 6.81 µg/mL (≈ 25 µM) | 6.81 µg/mL (≈ 25 µM) | 1.70 µg/mL (≈ 6.24 µM)
9 | C=C1C(=O)OC2CC1C(OC(C)=O)C/C(C)=C/CC/C(C)=C\CCC2(C)O (centres unmarked) [compound 36437] | ≥ 37.65 µg/mL | 9.41 µg/mL (≈ 25 µM) | 4.71 µg/mL (≈ 12.5 µM) | 2.35 µg/mL (≈ 6.24 µM)
10 | O=c1c(-c2ccc(O)cc2)coc2cc(O)cc(O)c12 [compound 36586] | ≥ 108.10 µg/mL | 13.51 µg/mL (≈ 50 µM) | 13.51 µg/mL (≈ 50 µM) | 1.69 µg/mL (≈ 6.25 µM)
11 | NC(=O)c1cccc(N)c1 [compound 36962] | ≥ 54.48 µg/mL | 13.62 µg/mL (≈ 100 µM) | 13.62 µg/mL (≈ 100 µM) | 13.62 µg/mL (≈ 100 µM)
12 | NC(=O)c1ccc(N)cc1 [compound 36963] | ≥ 54.48 µg/mL | 6.81 µg/mL (≈ 50 µM) | 13.62 µg/mL (≈ 100 µM) | 3.41 µg/mL (≈ 25 µM)
13 | NC(=O)c1cccc([N+](=O)[O-])c1 [compound 37327] | ≥ 66.44 µg/mL | 66.44 µg/mL (≈ 400 µM) | 33.22 µg/mL (≈ 200 µM) | 66.44 µg/mL (≈ 400 µM)
14 | C=CCOc1c(CCC)cc(CCC)cc1C(N)=O [compound 37955] | ≥ 26.14 µg/mL | 13.07 µg/mL (≈ 50 µM) | 13.07 µg/mL (≈ 50 µM) | 3.27 µg/mL (≈ 12.5 µM)
15 | CCOC(=O)CCCCCCCCCCCCC1C=CCC1 (centres unmarked) [compound 38010] | ≥ 30.85 µg/mL | 3.86 µg/mL (≈ 12.5 µM) | 1.93 µg/mL (≈ 6.26 µM) | 1.93 µg/mL (≈ 6.26 µM)
16 | COC(C(=O)C(O)C(C)O)C1Cc2cc3cc(OC4CC(OC(C)=O)C(OC5CC(O)C(OC)C(C)O5)C(C)O4)cc(O)c3c(O)c2C(=O)C1OC1CC(OC2CC(OC3CC(C)(O)C(OC(=O)C(C)C)C(C)O3)C(O)C(C)O2)C(O)C(C)O1 (centres unmarked) [compound 38270] | ≥ 59.87 µg/mL | 7.48 µg/mL (≈ 6.25 µM) | 3.83 µg/mL (≈ 3.2 µM) | 3.83 µg/mL (≈ 3.2 µM)
17 | NC(=O)c1ccccc1N [compound 38768] | ≥ 54.48 µg/mL | 54.48 µg/mL (≈ 400 µM) | 54.48 µg/mL (≈ 400 µM) | 54.48 µg/mL (≈ 400 µM)
